Data from patent US7728016B2, “Substituted 5-membered ring compounds and their use” (Vernalis (Cambridge) Limited, priority 2003, dated 2010).

target: T1, human full-length HSP90 (Homo sapiens, UniProt P08238); test: Fluorescence polarization assay (competitive displacement of probe RBT0045864-FAM from HSP90); assay type: binding; conditions: fluorescence polarisation assay, E. coli expressed human full-length HSP90, probe 80 nM
T1 construct: E. coli expressed human full-length HSP90 protein; made in house; host or cells: E. coli
T1 sequence (P08238 whole entry): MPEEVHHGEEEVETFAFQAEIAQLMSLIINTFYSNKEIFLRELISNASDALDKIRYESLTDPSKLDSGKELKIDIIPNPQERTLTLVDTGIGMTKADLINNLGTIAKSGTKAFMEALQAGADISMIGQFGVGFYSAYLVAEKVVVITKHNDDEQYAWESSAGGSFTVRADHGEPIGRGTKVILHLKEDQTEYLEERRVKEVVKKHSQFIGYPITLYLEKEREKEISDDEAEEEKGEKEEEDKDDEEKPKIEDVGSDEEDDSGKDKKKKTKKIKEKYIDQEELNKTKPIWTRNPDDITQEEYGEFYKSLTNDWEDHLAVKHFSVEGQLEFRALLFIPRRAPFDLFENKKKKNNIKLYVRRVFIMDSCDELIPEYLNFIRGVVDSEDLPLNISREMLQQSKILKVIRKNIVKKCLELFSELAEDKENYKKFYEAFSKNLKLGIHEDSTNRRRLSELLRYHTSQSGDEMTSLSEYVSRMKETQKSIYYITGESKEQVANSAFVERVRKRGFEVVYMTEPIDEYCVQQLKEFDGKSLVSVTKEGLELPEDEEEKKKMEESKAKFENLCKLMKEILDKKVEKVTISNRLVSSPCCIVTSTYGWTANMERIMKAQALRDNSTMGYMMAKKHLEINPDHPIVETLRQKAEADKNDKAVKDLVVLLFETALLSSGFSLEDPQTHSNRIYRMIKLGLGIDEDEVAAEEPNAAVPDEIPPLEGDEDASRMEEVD
Text: A fluorescence polarization assay was employed for the evaluation of some of the compounds of the Examples:
Fluorescence Polarization Assay
Fluorescence polarization {also known as fluorescence anisotropy} measures the rotation of a fluorescing species in solution, where the larger molecule the more polarized the fluorescence emission. When the fluorophore is excited with polarized light, the emitted light is also polarized. The molecular size is proportional to the polarization of the fluorescence emission.
The fluoroscein-labelled probe—RBT0045864-FAM—
[drawing 25] binds to HSP90 {full-length human, full-length yeast or N-terminal domain HSP90} and the anisotropy {rotation of the probe:protein complex} is measured.
Test compound is added to the assay plate, left to equilibrate and the anisotropy measured again. Any change in anisotropy is due to competitive binding of compound to HSP90, thereby releasing probe.
Chemicals are of the highest purity commercially available and all aqueous solutions are made up in AR water. • 1) Costar 96-well black assay plate #3915 • 2) Assay buffer of (a)100 mM Tris pH7.4; (b) 20 mM KCl; (c) 6 mM MgCl2. Stored at room temperature. • 3) BSA (bovine serum albumen) 10 mg/ml (New England Biolabs #B9001S) • 4) 20 mM probe in 100% DMSO stock concentration. Stored in the dark at RT. Working concentration is 200 nM diluted in AR water and stored at 4° C. Final concentration in assay 80 nM. • 5) E. coli expressed human full-length HSP90 protein, purified >95% (see, e.g., Panaretou et al., 1998) and stored in 50 μL aliquots at −80° C. Protocol • 1) Add 100 μl 1× buffer to wells 11A and 12A (=FP BLNK) • 2) Prepare assay mix—all reagents are kept on ice with a lid on the bucket as the probe is light-sensitive.
• 3) Aliquot 100 μl assay mix to all other wells • 4) Seal plate and leave in dark at room temp for 20 minutes to equilibrate Compound Dilution Plate—1×3 Dilution Series • 1) In a clear 96-well v-bottom plate—{#VWR 007/008/257} add 10 μl 100% DMSO to wells B1 to H11 • 2) To wells A1 to A11 add 17.5 μl 100% DMSO • 3) Add 2.5 μl cpd to A1. This gives 2.5 mM {50×} stock cpd—assuming cpds 20 mM. • 4) Repeat for wells A2 to A10. Control in columns 11 and 12. • 5) Transfer 5 μl from row A to row B—not column 12. Mix well. • 6) Transfer 5 μl from row B to row C. […] In column 11 {provides standard curve} only add compound B11-H11. Add 2 μl of 100 mM standard cpd to wells B12-H12 {is positive control} • 13) The Z′ factor is calculated from zero controls and positive wells. It typically gives a value of 0.7-0.9.
The compounds tested in the above assay were assigned to one of two activity ranges, namely A=<10 μM; B=>10 μM, and those assignments are reported above.

Q: Which IC50 does the source give for `COc1ccc(OC)c(-n2c(S)nnc2-c2ccc(O)cc2O)c1` [(v)] here?
A: < 10 µM

Q: `Cc1ccccc1-n1c(S)nnc1-c1ccc(O)cc1O` [(iv)] was tested. Which IC50 did it give?
A: < 10 µM

Q: Which IC50 does the source give for `Oc1ccc(-c2csc(-c3c[nH]c4ccccc34)n2)c(O)c1` [(i)] here?
A: > 10 µM

Q: With `CCOC(=O)c1nnn(-c2ccc(O)cc2O)c1-c1ccc(F)cc1` [Example 2, 1-(2,4-Dihydroxy-phenyl)-5-(4-fluoro-phenyl)-1H-[1,2,3]triazole-4-carboxylic acid ethyl ester] as the molecule, how does the IC50 read?
A: > 10 µM

Q: `O=C(O)c1nnn(-c2ccc(O)cc2O)c1-c1ccc(F)cc1` [Example 1, 1-(2,4-Dihydroxy-phenyl)-5-(4-fluoro-phenyl)-1H-[1,2,3]triazole-4-carboxylic acid] was tested. Which IC50 did it give?
A: > 10 µM

Q: Which IC50 does the source give for `CCOC(=O)c1nnn(-c2cc(Cl)c(O)cc2O)c1-c1ccc(F)cc1` [Example 3, 1-(5-Chloro-2,4-dihydroxy-phenyl)-5-(4-fluoro-phenyl)-1H-[1,2,3]triazole-4-carboxylic acid ethyl ester] here?
A: < 10 µM

Q: For `Oc1ccc(C2NN=C(Cc3ccccc3)S2)c(O)c1` (centres unmarked) [(ii)], which IC50 is on record?
A: > 10 µM

Q: With `Oc1ccc(-c2nnc(S)n2-c2cccc3ccccc23)c(O)c1` [(iii)] as the molecule, how does the IC50 read?
A: < 10 µM
